In the supplement of paper PMC8882468:
Several values for one entry are separate records, joined by “and”; a condition that tells them apart may be missing. Equal entries are not always repeated. ± gives the standard deviation of the averaged measurements.

Tests used:
Test in all cases: CTG-3D luminescence at 96 h relative to day-0 seeding control (ratio to day 0); higher = more growth / less cytotoxicity; PDxO 3D drug screen (set 2), 96 h, CTG-3D normalised to day-0 seeding control.
[1] = test system: HCI-001 (organoid from a triple-negative breast cancer xenograft)
[2] = test system: HCI-015 (organoid from a triple-negative breast cancer xenograft)
[3] = test system: HCI-012 (organoid from a breast cancer xenograft)
[4] = test system: HCI-010 (organoid from a breast cancer xenograft)
[5] = test system: HCI-003.E2 (organoid from an ER-positive breast cancer xenograft)
[6] = test system: HCI-005.E2 (organoid from a breast cancer xenograft with a HER2-positive history)
[7] = test system: MDA-MB-231

Cc1c(CN2CCN(C(=O)[C@H](C)O)CC2)sc2c(N3CCOCC3)nc(-c3cnc(N)nc3)nc12 [apitolisib]
CTG-3D luminescence at 96 h
Settings	12.5 pM	0.00025 µM	0.005 µM	0.1 µM	1 µM	10 µM	100 µM	625 fM
[1], days in culture: 365	2.58	2.24	2.1	1.76	0.879	0.659	0.623	1.4
[1], days in culture: 397	1.85	1.88	1.62	1.89	0.725	0.643	0.29	1.38
[1], days in culture: 401	1.46	1.75	1.41	1.57	0.609	0.676	0.517	1.65
[2], days in culture: 333	2.19	1.99	1.89	1.33	0.434	0.445	0.394	1.94
[2], days in culture: 355	2.9	4.1	1.01	2.04	0.803	0.711	0.182	1.38
[2], days in culture: 369	2.06	1.76	2.05	1.61	0.917	0.622	0.691	1.69
[3], days in culture: 214	3.46	3.38	1.52	1.74	0.672	0.176	0.0363	3.26
[3], days in culture: 243	2.34	2.6	2.13	1.48	0.554	0.118	0.0299	2.51
[3], days in culture: 256	2.08	2.2	2.08	2.67	0.805	0.1	0.0191	2.05
[3], days in culture: 284	2.16	2.93	1.47	1.97	0.681	0.102	0.0089	3.29
[4], days in culture: 79	1.94	1.83	1.96	1.68	0.503	0.107	0.0163	2.13
[4], days in culture: 86	2.03	2.34	2.49	1.94	0.554	0.242	0.088	2.27
[4], days in culture: 102	1.17	1.35	1.21	0.954	0.286	0.0291	0.0044	0.944
[4], days in culture: 164	1.71	1.39	1.57	1.27	0.641	0.265	0.0363	1.33

CTG-3D luminescence at 96 h
Settings	12.5 pM	0.00025 µM	0.005 µM	0.1 µM	1 µM	10 µM	100 µM	625 fM
[5]	2.46 ± 0.21	2.27 ± 0.43	2.31 ± 0.94	1.31 ± 0.17	0.0639 ± 0.034	0.0361 ± 0.0071	0.0424 ± 0.0037	2.82 ± 0.69
[6]	1.87 ± 0.27	2.22 ± 0.36	2.35 ± 0.29	1.75 ± 0.81	0.429 ± 0.096	0.481 ± 0.078	0.444 ± 0.035	2.21 ± 0.75
[7]	5.6 and 5.03	5.7 and 4.98	5.72 and 5.32	5.01 and 4.5	2.91 and 2.98	2.31 and 2.38	0.873 and 0.875	5.53 and 5.09
